Source: patent EP4685149A1, “NOVEL COMPOUND AS ENDOTHELIAL TO MESENCHYMAL TRANSITION (ENDMT) INHIBITOR, AND PHARMACEUTICAL COMPOSITION COMPRISING SAME” (Korea Institute of Radiological & Medical Sciences, priority 2023, dated 2024)
Read-outs that look alike come from different tables or passages of the source.

Tested on: human vascular endothelial cell lines
Assay: Inhibition of radiation-induced endothelial cell transition (EndMT), phalloidin immunofluorescence staining
Type: cell-based
Conditions: 10 uM test substance 1 hour before 10 Gy irradiation, 72 hours after irradiation, relative ratio with IR group (10 Gy alone) as 100%; for activity at 10 µM: Homo sapiens, Endothelial cell, light or radiation study
Procedure: Test substances (Examples 1 to 45) were treated with a 10 mM DMSO solution at a ratio of 1 µL per 1 mL of cell culture medium to a final concentration of 10 uM, and the test substances were treated 1 hour before irradiation on human vascular endothelial cell lines (Promocell, Germany), and then, it was irradiated at an intensity of 10 Gy. 72 hours after irradiation, the human vascular endothelial cell lines were fixed with 10% formalin, and the experiment was conducted according to the manufacturer's method using phalloidin (Invitrogen, USA) to confirm the cytoskeleton filaments that increase during fibrosis. Phalloidin is a protein that binds to the actin of cytoskeleton filaments, and phalloidin conjugated with FITC fluorescent substance made the cytoskeleton filaments appear green when observed under a microscope.
After treatment with the test substance, the area, length and density of phalloidin were measured by using a confocal microscope, and the relative ratio was expressed with the irradiated group (IR group) that was irradiated with 10 Gy alone as 100% (Table 1).

## CC#Cc1nc(N[C@@H]2CCc3ccccc32)c2ncn([C@@H]3SC[C@@H](O)[C@H]3O)c2n1 [Example 1, (2R,3R,4S)-2-[6-[[(1R)-indan-1-yl]amino]-2-prop-1-ynyl-purin-9-yl]tetrahydrothiophene-3,4-diol]
read-out: Palloidin Area
  activity at 10 µM: 50 to 80%
read-out: Palloidin Intensity
  activity at 10 µM: 50 to 80%
read-out: Palloidin Length
  activity at 10 µM: > 80%

## CC#Cc1nc(N[C@H]2CCc3ccccc32)c2ncn([C@@H]3SC[C@@H](O)[C@H]3O)c2n1 [Example 2, (2R,3R,4S)-2-[6-[[(1S)-indan-1-yl]amino]-2-prop-1-ynyl-purin-9-yl]tetrahydrothiophene-3,4-diol]
read-out: Palloidin Area
  activity at 10 µM: > 80%
read-out: Palloidin Intensity
  activity at 10 µM: > 80%
read-out: Palloidin Length
  activity at 10 µM: > 80%

## CCC#Cc1nc(N[C@@H]2CCc3ccccc32)c2ncn([C@@H]3SC[C@@H](O)[C@H]3O)c2n1 [Example 3, (2R,3R,4S)-2-[2-but-1-ynyl-6-[[(1R)-indan-1-yl]amino]purin-9-yl]tetrahydrothiophene-3,4-diol]
read-out: Palloidin Area
  activity at 10 µM: > 80%
read-out: Palloidin Intensity
  activity at 10 µM: > 80%
read-out: Palloidin Length
  activity at 10 µM: > 80%

## CCC#Cc1nc(N[C@H]2CCc3ccccc32)c2ncn([C@@H]3SC[C@@H](O)[C@H]3O)c2n1 [Example 4, (2R,3R,4S)-2-[2-but-1-ynyl-6-[[(1S)-indan-1-yl]amino]purin-9-yl]tetrahydrothiophene-3,4-diol]
read-out: Palloidin Area
  activity at 10 µM: 50 to 80%
read-out: Palloidin Intensity
  activity at 10 µM: 50 to 80%
read-out: Palloidin Length
  activity at 10 µM: 50 to 80%

## CCCC#Cc1nc(N[C@@H]2CCc3ccccc32)c2ncn([C@@H]3SC[C@@H](O)[C@H]3O)c2n1 [Example 5, (2R,3R,4S)-2-[6-[[(1R)-indan-1-yl]amino]-2-pent-1-ynyl-purin-9-yl]tetrahydrothiophene-3,4-diol]
read-out: Palloidin Area
  activity at 10 µM: 50 to 80%
read-out: Palloidin Intensity
  activity at 10 µM: 50 to 80%
read-out: Palloidin Length
  activity at 10 µM: 50 to 80%

## CCCC#Cc1nc(N[C@H]2CCc3ccccc32)c2ncn([C@@H]3SC[C@@H](O)[C@H]3O)c2n1 [Example 6, (2R,3R,4S)-2-[6-[[(1S)-indan-1-yl]amino]-2-pent-1-ynyl-purin-9-yl]tetrahydrothiophene-3,4-diol]
  Palloidin Length: ++^+
read-out: Palloidin Area
  activity at 10 µM: 20 to 50%
read-out: Palloidin Intensity
  activity at 10 µM: 20 to 50%

## O[C@@H]1[C@H](O)CS[C@H]1n1cnc2c(NC3Cc4ccccc4C3)nc(Cl)nc21 [Example 7, (2R,3R,4S)-2-[2-chloro-6-(indan-2-ylamino)purin-9-yl]tetrahydrothiophene-3,4-diol]
read-out: Palloidin Area
  activity at 10 µM: > 80%
read-out: Palloidin Intensity
  activity at 10 µM: > 80%
read-out: Palloidin Length
  activity at 10 µM: > 80%

## O[C@@H]1[C@H](O)CS[C@H]1n1cnc2c(NC3CCc4ccccc43)nc(Cl)nc21 (stereo partly drawn) [Example 8, (2R,3R,4S)-2-[2-chloro-6-(indan-1-ylamino)purin-9-yl]tetrahydrothiophene-3,4-diol]
read-out: Palloidin Area
  activity at 10 µM: 20 to 50%
read-out: Palloidin Intensity
  activity at 10 µM: 20 to 50%
read-out: Palloidin Length
  activity at 10 µM: 20 to 50%

## O[C@@H]1[C@H](O)CS[C@H]1n1cnc2c(N[C@@H]3CCc4ccccc43)nc(Cl)nc21 [Example 9, (2R,3R,4S)-2-[2-chloro-6-[[(1R)-indan-1-yl]amino]purin-9-yl]tetrahydrothiophene-3,4-diol]
read-out: Palloidin Area
  activity at 10 µM: 50 to 80%
read-out: Palloidin Intensity
  activity at 10 µM: 50 to 80%
read-out: Palloidin Length
  activity at 10 µM: 50 to 80%

## O[C@@H]1[C@H](O)CS[C@H]1n1cnc2c(N[C@H]3CCc4ccccc43)nc(Cl)nc21 [Example 10, (2R,3R,4S)-2-[2-chloro-6-[[(1S)-indan-1-yl]amino]purin-9-yl]tetrahydrothiophene-3,4-diol]
read-out: Palloidin Area
  activity at 10 µM: > 80%
read-out: Palloidin Intensity
  activity at 10 µM: > 80%
read-out: Palloidin Length
  activity at 10 µM: > 80%

## COc1cccc2c1CC[C@H]2Nc1nc(Cl)nc2c1ncn2[C@@H]1SC[C@@H](O)[C@H]1O [Example 11, (2R,3R,4S)-2-[2-chloro-6-[[(1R)-4-methoxyindan-1-yl]amino]purin-9-yl]tetrahydrothiophene-3,4-diol]
read-out: Palloidin Area
  activity at 10 µM: 20 to 50%
read-out: Palloidin Intensity
  activity at 10 µM: 20 to 50%
read-out: Palloidin Length
  activity at 10 µM: 20 to 50%

## COc1ccc2c(c1)CC[C@H]2Nc1nc(Cl)nc2c1ncn2[C@@H]1SC[C@@H](O)[C@H]1O [Example 12, (2R,3R,4S)-2-[2-chloro-6-[[(1R)-5-methoxyindan-1-yl]amino]purin-9-yl]tetrahydrothiophene-3,4-diol]
read-out: Palloidin Area
  activity at 10 µM: > 80%
read-out: Palloidin Intensity
  activity at 10 µM: > 80%
read-out: Palloidin Length
  activity at 10 µM: > 80%
